# Measured values from US11878980B2, “Solid forms of TTK inhibitor” (UNIVERSITY HEALTH NETWORK, priority 2016, dated 2024).
# Counter-ions that a name gives are not always drawn.
# Experiments:
# [1] = Hygroscopicity (water sorption at 90% RH); type: physicochemical
# [2] = Solubility (Solubilitymax, pHmax) of crystalline forms; type: physicochemical
# [3] = Pharmacokinetic analysis after single oral powder-in-capsule dose, rat plasma by LC/MS; type: in vivo, Sprague-Dawley rats; conditions: for AUC0-last / Cmax: Rat, PO, 5 mg/kg; for plasma concentrations relative to free base compound (I) (in words): Sprague Dawley rats, oral
# Protocol: (§1) A single oral, powder-in-capsule dose of each form was administered to three (n=3) female Sprague-Dawley rats and three male beagle dogs (n=3) at 5 mg active pharmaceutical ingredient per kg body weight. The plasma was then analyzed for compound plasma levels by LC/MS.
# (§2) Compound was milled using a mortar and pestle and was carefully dispensed into a gelatin capsule, tared on an analytical balance. Loading continued until the desired compound mass was achieved. Size 9 capsules were used for rat dosing and size 3 capsules were used for dogs. Note: compound load was corrected for the bioequivalence ratio of each form.
# (§3) Following oral dosing, blood was drawn from the lateral saphenous vein into lithium heparin coated tubes (rats) or K2EDTA coated tubes (dogs), at designated time points. Plasma was collected and stored frozen at −80° C. until analysis.
# Plasma samples (20 μL) and spiked plasma standard samples were diluted five-fold with ice cold acetonitrile containing 100 ng/mL verapamil as internal standard. Samples and standards were filtered through 0.22 μm membranes in a 96-well format. Filtrates were then diluted with water to 30% acetonitrile.
# 10 μL of each sample and standard was injected onto a Waters Acquity CSH 1.7 μm 2.1×100 mm column at 0.6 mL/min by an Acquity UPLC. The C18 column was equilibrated at 5% acetonitrile in water. Compounds were eluted with a gradient to 99% acetonitrile. All mobile phases contained 0.1% (v/v) formic acid.
# Column eluent was analyzed by an electrospray ionization tandem quadrupole mass spectrometry system (ESI-MS/MS, a Waters Xevo TQ). Eluent composition was analyzed for three ion-pairs specific for the internal standard and three ion-pairs specific for the analyte. Experimental samples were compared with standard curve samples to determine compound concentrations. Pharmacokinetic parameters were determined using the Excel plug-in “PKfit”.
# [4] = Pharmacokinetic analysis after single oral powder-in-capsule dose, dog plasma by LC/MS; type: in vivo, beagle dogs; conditions: for AUC0-last / Cmax: Dog, PO, 5 mg/kg; for plasma concentrations relative to free base compound (I) (in words): beagle dogs, oral
# Protocol: as §1, §2, §3
# Plasma samples (20 μL) and spiked plasma standard samples were diluted eleven fold with ice cold acetonitrile containing 40 ng/mL Diclofenac as internal standard. The mixture was vortexed for 2 min and centrifuged. The 0.5 μL supernatant was injected into a Waters Acquity BEH 1.7 μm 2.1×50 mm column at 0.6 mL/min by an Acquity UPLC. The column was equilibrated with 10% methanol in water. Compounds were eluted with a gradient to 95% methanol. Mobile phases contained 0.025% (v/v) formic acid and 1 mM NH4OAc.
# Column eluent was analyzed by an electrospray ionization tandem quadrupole mass spectrometry system (ESI-MS/MS, an API-6500). Eluent composition was analyzed for one ion-pairs specific for the internal standard and one ion-pairs specific for the analyte. Experimental samples were compared with standard curve samples to determine compound concentrations. Pharmacokinetic parameters were determined using WinNonlin Professional 6.2.
Hygroscopicity (water sorption at 90% RH) [1] [%],Solubilitymax [2] [µg/mL],pHmax [2],AUC0-last [3] [ng·h/mL],Cmax [3] [ng/mL],plasma concentrations relative to free base compound (I) (in words) [3],AUC0-last [4] [ng·h/mL],Cmax [4] [ng/mL],plasma concentrations relative to free base compound (I) (in words) [4],SMILES
3.9,100,<1.14,2100,1120,increased plasma concentrations,4000,830,increased plasma concentrations,Cc1cc(-c2cnn3c(NC[C@H]4C[C@@](C)(O)C4)cc(Oc4cccnc4)nc23)ccc1C(=O)NC1CC1 [Compound (I) bisphosphate hemihydrate]
–,<1,–,–,–,–,–,–,–,Cc1cc(-c2cnn3c(NC[C@H]4C[C@@](C)(O)C4)cc(Oc4cccnc4)nc23)ccc1C(=O)NC1CC1 [Compound I-monohydrate]
0.8,<1,–,140,11,–,40,8,–,"Cc1cc(-c2cnn3c(NC[C@H]4C[C@@](C)(O)C4)cc(Oc4cccnc4)nc23)ccc1C(=O)NC1CC1 [Compound (I), N-cyclopropyl-4-(7-((((1s,3s)-3-hydroxy-3-methylcyclobutyl)methyl)amino)-5-(pyridin-3-yloxy)pyrazolo[1,5-a]pyrimidin-3-yl)-2-methylbenzamide]"
2.3,630,0.79,1640,260,increased plasma concentrations,2760,570,increased plasma concentrations,Cc1cc(-c2cnn3c(NC[C@H]4C[C@@](C)(O)C4)cc(Oc4cccnc4)nc23)ccc1C(=O)NC1CC1 [Compound (I) hydrobromide]
